Assays:
Details in all cases: 72 h
Caco-2 [1] = assay: cell viability relative to DMSO; higher = less toxic
Calu-3 [2] = assay: as above
HepG2 [3] = assay: as above
U2OS [4] = assay: as above
Vero E6 [5] = assay: as above
Caco-2 [6] = assay: relative viability EC50 (midpoint between 100% and the lowest measured viability); higher = less toxic
Calu-3 [7] = assay: as above
HepG2 [8] = assay: as above
U2OS [9] = assay: as above
Vero E6 [10] = assay: as above
Caco-2 [11] = assay: drug sensitivity score (DSS) for viability; higher = more toxic; extreme values may be limits of the assay
Calu-3 [12] = assay: as above
HepG2 [13] = assay: as above
U2OS [14] = assay: as above
Vero E6 [15] = assay: as above

Structure (SMILES) | cell viability (Caco-2 [1]; 1 nM) | cell viability (Caco-2 [1]; 10 nM) | cell viability (Caco-2 [1]; 100 nM) | cell viability (Caco-2 [1]; 1000 nM) | cell viability (Caco-2 [1]; 10000 nM) | cell viability (Calu-3 [2]; 1 nM) | cell viability (Calu-3 [2]; 10 nM) | cell viability (Calu-3 [2]; 100 nM) | cell viability (Calu-3 [2]; 1000 nM) | cell viability (Calu-3 [2]; 10000 nM) | cell viability (HepG2 [3]; 1 nM) | cell viability (HepG2 [3]; 10 nM) | cell viability (HepG2 [3]; 100 nM) | cell viability (HepG2 [3]; 1000 nM) | cell viability (HepG2 [3]; 10000 nM) | cell viability (U2OS [4]; 1 nM) | cell viability (U2OS [4]; 10 nM) | cell viability (U2OS [4]; 100 nM) | cell viability (U2OS [4]; 1000 nM) | cell viability (U2OS [4]; 10000 nM) | cell viability (Vero E6 [5]; 1 nM) | cell viability (Vero E6 [5]; 10 nM) | cell viability (Vero E6 [5]; 100 nM) | cell viability (Vero E6 [5]; 1000 nM) | cell viability (Vero E6 [5]; 10000 nM) | relative viability EC50 (Caco-2 [6]) | relative viability EC50 (Calu-3 [7]) | relative viability EC50 (HepG2 [8]) | relative viability EC50 (U2OS [9]) | relative viability EC50 (Vero E6 [10]) | drug sensitivity score (Caco-2 [11]) | drug sensitivity score (Calu-3 [12]) | drug sensitivity score (HepG2 [13]) | drug sensitivity score (U2OS [14]) | drug sensitivity score (Vero E6 [15])
O=C(/C=C/c1ccc(CN(CCO)CCc2c[nH]c3ccccc23)cc1)NO [dacinostat] | 96.5% | 101% | 38.7% | 0.3% | 0.8% | 98.7% | 90.1% | 56.5% | 11.3% | 5.5% | 104% | 82% | 26.1% | -0.4% | -0.4% | 98.1% | 101% | 66.4% | 1.3% | 0.5% | 108% | 103% | 47.8% | -0.4% | -0.3% | 0.083 µM | 0.109 µM | 0.0395 µM | 0.131 µM | 0.0966 µM | 25.2 | 21.5 | 28.4 | 22.6 | 24.4
Cc1c(Cc2ccc3ccccc3n2)c2cc(F)ccc2n1CC(=O)O | 94.6% | 99.4% | 98.7% | 98.4% | 109% | 95.8% | 108% | 96.8% | 110% | 111% | 119% | 96.9% | 109% | 108% | 105% | 94.7% | 101% | 95.4% | 97.9% | 108% | 102% | 96.7% | 99.5% | 97.8% | 101% | > 10 µM | > 10 µM | > 10 µM | > 10 µM | > 10 µM | 0 | 0 | 0 | 0 | 0
CS(=O)(=O)OCOS(C)(=O)=O [MDMS] | 104% | 105% | 98.1% | 99.7% | 101% | 102% | 103% | 95.9% | 100% | 97.7% | 109% | 97.1% | 112% | 112% | 107% | 100% | 102% | 99.6% | 106% | 104% | 99.8% | 98.4% | 102% | 98.7% | 101% | > 10 µM | > 10 µM | > 10 µM | > 10 µM | > 10 µM | 0 | 0 | 0 | 0 | 0
CC[C@H]1OC(=O)[C@H](C)[C@@H](O[C@H]2C[C@@](C)(OC)[C@@H](O)[C@H](C)O2)[C@H](C)[C@@H](O[C@@H]2O[C@H](C)C[C@H](N(C)C)[C@H]2O)[C@](C)(O)C[C@@H](C)C(=O)[C@H](C)[C@@H](O)[C@]1(C)O [erythromycin] | 97.9% | 100% | 97.2% | 94.4% | 96.4% | 94.2% | 102% | 97.5% | 90% | 86.9% | 100% | 83.5% | 98.1% | 91.4% | 90.4% | 104% | 102% | 102% | 98% | 101% | 101% | 97.9% | 101% | 97.4% | 99.5% | > 10 µM | > 10 µM | > 10 µM | > 10 µM | > 10 µM | 0 | 0.5 | 0 | 0 | 0
NC(=O)CN1CC[C@@H](NC(=O)[C@@H]2CCCN2)C1=O [PAOPA] | 100% | 99.7% | 100% | 134% | 96.7% | 98.1% | 99.6% | 106% | 94.2% | 106% | 89.1% | 109% | 97% | 100% | 108% | 100% | 102% | 102% | 105% | 95.2% | 95.4% | 97.8% | 92.5% | 101% | 104% | > 10 µM | > 10 µM | > 10 µM | > 10 µM | > 10 µM | 0 | 0 | 0 | 0 | 0
O=C(O)c1ccc(O)c2ncccc12 [IOX1] | 89% | 97.7% | 97.6% | 104% | 102% | 97.6% | 99.5% | 98.2% | 105% | 86.7% | 110% | 90.1% | 87.4% | 101% | 94.7% | 99.9% | 100% | 100% | 103% | 99.7% | 98% | 92.3% | 103% | 101% | 106% | > 10 µM | > 10 µM | > 10 µM | > 10 µM | > 10 µM | 0 | 0 | 0 | 0 | 0
CCOC(=O)C1=C(C)NC(=S)NC1c1cccc(O)c1 (stereo not given) [monastrol] | 103% | 94.6% | 94.1% | 96% | 96.8% | 89.7% | 95.1% | 95.6% | 100% | 103% | 99.3% | 107% | 96.2% | 99.4% | 101% | 103% | 99% | 103% | 98.7% | 104% | 104% | 108% | 102% | 97.6% | 97.9% | > 10 µM | > 10 µM | > 10 µM | > 10 µM | > 10 µM | 0 | 0 | 0 | 0 | 0

Source: the supplement of paper PMC13380429
